Data published in US5011824A, “Rectal motilin preparation” (Kyowa Hakko Kogyo Co., Ltd., priority 1988, dated 1991).

Test: Intravenous safety of motilin in rats
Type: in vivo
Conditions: 10 mg/kg intravenously
Description: The preparation usually contains a therapeutically effective quantity, suitably about 0.05 to about 5% by weight, preferably about 0.1 to about 2% by weight, of motilin.

Substance: motilin
- mortality: did not die
